# In EPA's aquatic toxicity sets:
# Test system: Pimephales promelas
# Experiment: 96 h LC50 (-log10 mol/L); higher = more toxic
row,SMILES,96 h LC50 (-log10 mol/L)
1,CC(C)C(C(=O)OC(C#N)c1cccc(Oc2ccccc2)c1)c1ccc(OC(F)F)cc1 (stereo not given),8.98
2,CC(C)Oc1cccc(NC(=O)c2ccccc2C(F)(F)F)c1,4.83
3,CC12CCC(C(Br)C1=O)C2(C)C (stereo not given),3.53
4,O[C@@H]1CCCC[C@H]1c1ccccc1,3.6
5,Cc1ncc[nH]1,2.46
6,C=C(Cl)Cl,2.86
7,Cc1cc(O)c([N+](=O)[O-])cc1[N+](=O)[O-],4.79
8,CCOC(CN(C)CC(OCC)OCC)OCC,2.62
9,COc1ccc(OC)c(C(=O)CBr)c1,6.65
10,Cc1cocn1,1.78
11,BrCC1CCCCO1 (stereo not given),2.94
12,NCCCN1CCN(CCCN)CC1,1.81
13,CS(=O)(=O)Oc1ccc(Cl)cc1Cl,4.74
14,COc1cccc(OC)c1C,3.88
15,OCCN(CCO)c1ccccc1,2.39
16,COc1cc(C=O)cc(Br)c1O,3.59
17,O=CN(c1ccccc1)c1ccccc1,3.81
18,C=C(C)C(=O)OCC1CCCO1 (stereo not given),3.69
19,CC(C)=C1C=C2CC[C@@H]3[C@](C)(CCC[C@@]3(C)C(=O)O)[C@H]2CC1,5.31
20,ClCCOCOCCCl,2.97
21,CN(C)C(=O)C(c1ccccc1)c1ccccc1,3.7
22,C=C(C)C(=O)OCCOCC,3.76
23,OCCOCCO,0.15
24,COP(O)(=S)OC,3.52

row,SMILES,96 h LC50 (-log10 mol/L)
1,Cc1nnc(N)nc1C,2.12
2,CCCSP(=O)(OCC)Oc1ccc(Br)cc1Cl (stereo not given),6.64
3,Oc1ccc(Oc2ccc(O)cc2)cc1,4.54
4,CC1CNCCN1 (stereo not given),1.65
5,COc1ccc(C(C)=O)c(OC)c1OC,3.02
6,O=C1C2CC=CCC2C(=O)N1SC(Cl)(Cl)Cl (stereo not given),6.35
7,c1ccc(SSc2ccccc2)cc1,6.3
8,CC(C)C(C(=O)OC(C#N)c1cccc(Oc2ccccc2)c1)c1ccc(Cl)cc1 (stereo not given),8.14
9,CCCCOC(=O)c1ccc(C(=O)OCCCC)cc1,5.67
10,CCN(CC)c1ccc(C=O)cc1,3.87
11,OCCOc1ccccc1,2.6
12,Nc1ccc(Br)cn1,2.99
13,CC(Oc1cc(Cl)c(Cl)cc1Cl)C(=O)O (stereo not given),4.2
14,O=P(c1ccccc1)(c1ccccc1)c1ccccc1,3.71
15,C=CCC1=C(C)[C@@H](OC(=O)[C@@H]2[C@@H](C=C(C)C)C2(C)C)CC1=O,6.67
16,O=S1OCC2C(CO1)C1(Cl)C(Cl)=C(Cl)C2(Cl)C1(Cl)Cl (stereo not given),8.48
17,BrC(Br)c1ccccc1C(Br)Br,5.99
18,ClC1C(Cl)C(Cl)C(Cl)C(Cl)C1Cl (stereo not given),6.61
19,OCc1ccoc1,2.29
20,C1COCCO1,0.931
21,C#CCN(CC#C)CC#C,2.65
22,CN(C)N=O,1.9
23,CC1(C)NC(=O)NC1=O,0.89
24,Cc1c(Cl)cc(C(C)(C)C)c(O)c1C(=O)Nc1ccc([N+](=O)[O-])cc1Cl,7.69

row,SMILES,96 h LC50 (-log10 mol/L)
1,COCCCNCc1cc(OC)c(OC)c(OC)c1,3.3
2,COc1ccccc1[N+](=O)[O-],2.9
3,O=Cc1c(F)cccc1Cl,4.23
4,CCOC(=O)/C=C/C(=O)OCC,4.58
5,CC(C)(C)SSC(C)(C)C,5.12
6,S=c1[nH]c2cc(Cl)ccc2s1,4.8
7,CC1=CCC(=C(C)C)CC1,5.05
8,CCCSSCCC,4.76
9,COC(=O)c1ccc(O)cc1O,3.6
10,Cc1ccc([N+](=O)[O-])c(N)c1,3.79
11,CCC(C)C=O (stereo not given),3.94
12,CC(O)(c1ccc(Cl)cc1)c1ccc(Cl)cc1,5.25
13,CC(C)=CCC/C(C)=C/CN(C/C=C(\C)CCC=C(C)C)CCO,6.41
14,CCN(CC)c1c([N+](=O)[O-])cc(C(F)(F)F)c(N)c1[N+](=O)[O-],5.39
15,Cc1c([N+](=O)[O-])ccc([N+](=O)[O-])c1N,5.37
16,Cc1c(N)cccc1[N+](=O)[O-],3.48
17,CN(C)C(=O)Nc1ccc(Cl)c(Cl)c1,4.21
18,c1ccc(-c2cccc(-c3ccccc3)n2)cc1,6.04
19,Cc1cc(Cl)ccc1OCCCC(=O)O,4.26
20,CC(=O)Nc1ccccc1O,3.66
21,Cc1ccc([N+](=O)[O-])c(N)c1[N+](=O)[O-],4.21
22,CC(C)(C)c1ccc(CSc2cnn(C(C)(C)C)c(=O)c2Cl)cc1,8.2
23,CCCSCCC,3.74
24,O=C(O)c1c(F)cccc1F,3.36

row,SMILES,96 h LC50 (-log10 mol/L)
1,CC1=CC[C@@H]2C[C@H]1C2(C)C,5.69
2,O=C(Oc1ccccc1)c1ccccc1C(=O)Oc1ccccc1,6.6
3,CC(C)(C)CCN,2.23
4,Cc1cccnc1,2.81
5,BrCCCBr,5.05
6,CCCCCCCCCCCCN,6.25
7,O=Cc1cc([N+](=O)[O-])ccc1Cl,4.67
8,CCC(=O)c1ccc(N)cc1,3.01
9,CCN(CC)CCCC(C)=O,2.67
10,CC(C)(c1cc(Br)c(O)c(Br)c1)c1cc(Br)c(O)c(Br)c1,5.83
11,CCCCOc1ccccc1,4.42
12,Cc1cc(C)c([N+](=O)[O-])cc1[N+](=O)[O-],4.39
13,C1CN2CCN1CC2,1.81
14,CNC(=O)Oc1cccc2c1OC(C)(C)C2,5.4
15,CC(C)(O)C(Cl)(Cl)Cl,3.12
16,CCCCCCCCCCCCCN,6.48
17,CC12CCC(CC1)C(C)(C)O2,3.18
18,O=C1C2CC3CC(C2)CC1C3,3.39
19,Cc1ccccc1F,3.75
20,CCC1(CCC(C)C)C(=O)NC(=O)NC1=O,3.42
21,O=C(Cl)c1ccccc1,3.61
22,OCCN1CCNCC1,1.31
23,O[C@H]1C[C@@H]2CC[C@H]1C2,2.69
24,ClC1=C(Cl)[C@]2(Cl)[C@H]3[C@H]([C@@H]4C=C[C@H]3C4)[C@@]1(Cl)C2(Cl)Cl,7.09

row,SMILES,96 h LC50 (-log10 mol/L)
1,CC(Cl)(Cl)C(=O)O,2.69
2,Cc1c([N+](=O)[O-])cc(N)cc1[N+](=O)[O-],4.46
3,CCSCCCCSCC,4.47
4,CCOP(=S)(OCC)SCSP(=S)(OCC)OCC,5.73
5,CCCCC(=O)CCCC,3.66
6,CCCCN(CC)c1c([N+](=O)[O-])cc(C(F)(F)F)cc1[N+](=O)[O-],6.53
7,O=S(=O)([O-])c1ccc[n+](Cc2ccccc2)c1,2.02
8,CCC(C)n1c(=O)[nH]c(C)c(Br)c1=O (stereo not given),3.15
9,C#CC(O)(c1ccccc1)c1ccccc1,4.27
10,CCOC(=O)[C@H](C)N(C(=O)c1ccccc1)c1ccc(Cl)c(Cl)c1,5.68
11,Cc1c([N+](=O)[O-])ccc(N)c1[N+](=O)[O-],4.25
12,C1C2CC3CC1CC(C2)C3,5.68
13,CC(C)[C@@H]1CC[C@@H](C)C[C@H]1O,3.92
14,CC(=O)C(C)CN(C)C (stereo not given),4.18
15,CC(=O)c1ccc(Cl)c([N+](=O)[O-])c1,4.56
16,COP(=S)(OC)Oc1ccc(Sc2ccc(OP(=S)(OC)OC)cc2)cc1,4.14
17,CCNc1cccc(C)c1,3.44
18,Oc1cc(Cl)c(Cl)cc1O,5.3
19,CC(C)=CC1C(C(=O)OCc2ccc(C)cc2C)C1(C)C (stereo not given),6.67
20,C=C(CCl)CCl,5.82
21,ClC1(Cl)C2(Cl)C3(Cl)C4(Cl)C(Cl)(Cl)C5(Cl)C3(Cl)C1(Cl)C5(Cl)C24Cl (stereo not given),3.62
22,O=CC=O,2.43
23,CCCCOCCOC(=O)C(C)Oc1cc(Cl)c(Cl)cc1Cl (stereo not given),5.57
24,OCC(F)(F)F,2.92

row,SMILES,96 h LC50 (-log10 mol/L)
1,CCSCCSCC,3.4
2,CCNS(=O)(=O)C(F)(F)C(F)(F)C(F)(F)C(F)(F)C(F)(F)C(F)(F)C(F)(F)C(F)(F)F,6.45
3,CC(C)(C)c1ccc(C(N)=O)cc1,3.75
4,O=Cc1cccc(Oc2ccc(Cl)c(Cl)c2)c1,5.95
5,Cc1ccc(Cl)c(Cl)c1,4.74
6,CC1CNCC(C)O1 (stereo not given),2.47
7,CCNc1nc(NC(C)(C)C)nc(OC)n1,3.66
8,CCN1C(=O)CC(=O)N(CC)C1=S,1.65
9,O=C1c2ccccc2C(=O)N1SC(Cl)(Cl)Cl,6.21
10,COc1ccc(OC)cc1,3.07
11,CC(C)SSC(C)C,4.26
12,CC1(C)CCC(C)(C)O1,2.88
13,C#CCCO,3.29
14,CC(C)(C)CN,2.26
15,O=C(Nc1cccc(Cl)c1)c1cccc([N+](=O)[O-])c1O,6.08
16,Cl[C@@H]1CCCC[C@H]1Cl,3.92
17,C=CCNc1ccccc1,3.57
18,Nc1ccc(S(=O)(=O)O)cc1,3.24
19,CCNc1nc(NC(C)C)nc(SC)n1,4.38
20,CCOP(=S)(OCC)Oc1ccc(S(C)=O)cc1 (stereo not given),3.85
